Results taken from article PMC11592631, “Novel PP2A-Activating Compounds in Neuroblastoma” (Cancers, 2024).

Key:
MYCN = assay: Immunoblotting for phosphorylated MYCN (S62) and total MYCN; format: cell-based, human; details: increasing concentrations, immunoblot
Description: (§1) Post-treatment, cell lysis was completed in radioimmunoprecipitation (RIPA) buffer. Phosphatase inhibitors (P5726, Sigma), protease inhibitors (P8340, Sigma), and phenylmethanesulfonylfluoride (PMSF, P7626, Sigma) were added to make a complete RIPA buffer. Lysis was performed for 60 min at 4 °C followed by centrifugation at 17,000 rpm for 30 min (4 °C). The protein concentration was determined using the Pierce BCA Protein Assay (Thermo Fisher Scientific), and protein separation was completed on sodium dodecyl sulfate polyacrylamide (SDS-PAGE) gel-based electrophoresis. Targeted protein size was determined using molecular weight markers (Precision Plus Protein Kaleidoscope, Bio-Rad, Hercules, CA, USA). […] Immunoblots were developed with Luminata Classico or Crescendo Western horseradish peroxidase substrate (EMD Millipore, Burlington, MA, USA) on X-ray film. Anti-beta-actin, anti-vinculin, or anti-GAPDH served as internal loading controls.

SK-N-BE(2) tumors = assay: In vivo tumor growth, flank xenograft; design: species or system athymic nude mice; details: 50 mg/kg oral twice daily, 21 days
Description: (§2) SK-N-AS or SK-N-BE(2) (1.5 × 10^6) cells in 25% Matrigel (BD Biosciences) were injected into the right flank of 6-week-old female athymic nude mice (Fredricks) (n = 7 for SK-N-AS vehicle treated, n = 6 for SK-N-AS experimental groups, n = 5 for SK-N-BE(2) vehicle treated, n = 6 for SK-N-BE(2) ATUX-3364, and n = 7 ATUX-8385 treatment groups). Tumors were measured thrice per week with calipers, and tumor volumes were calculated by the formula (width^2 × length)/2, where the width was the smaller measurement. When tumors reached a volume of 60–100 mm^3, animals were randomized to three groups to receive 100 µL twice daily by oral gavage of vehicle [N,N-dimethylacetamide (DMA, 271012, Sigma Aldrich) and Kolliphor HS 15 (Solutol, 42996, Sigma Aldrich)], ATUX-3364 (50 mg/kg in DMA and Solutol), or ATUX-8385 (50 mg/kg in DMA and Solutol); dosing was based on previously published data using in vivo cancer models. Animals were weighed daily and were humanely euthanized in their home cages with CO2 and cervical dislocation 14 (SK-N-AS) or 21 (SK-N-BE(2)) days after treatment initiation, when the tumor volume reached 2000 mm^3, or when animals met IACUC parameters. Because COA6 cells grow tumors unpredictably and erratically in mice, these PDX cells were not utilized for in vivo studies, but all COA6 tumors were propagated in mice.

SK-N-AS tumors = assay: In vivo tumor growth, flank xenograft; design: species or system athymic nude mice; details: 50 mg/kg oral twice daily, 14 days
Description: as §2

SET = assay: Immunoblotting for the endogenous PP2A inhibitor SET; format: cell-based, human; details: immunoblot
Description: as §1

WAC2 cells [1] = assay: Proliferation, CellTiter 96 assay; format: cell-based, human; details: WAC2, increasing doses, 24 h
Description: (§3) Cell viability was determined by alamarBlue assay (Thermo Fisher Scientific) and proliferation was detected with CellTiter 96 Proliferation assay (Promega, Madison, WI, USA). NB cell lines (15,000 cells for viability or 5000 for proliferation) or COA6 PDX cells (30,000 for viability or 10,000 for proliferation) were seeded in 96-well cell culture plates followed by treatment with increasing doses of ATUX-3364 or ATUX-8385 for 24 h. Doses were as follows: established cell lines, 0–20 µM; PDX COA6 cells, 0–25 µM. Respective dyes (10 µL) were added, and absorbance measurement was completed with a microplate reader (Epoch Microplate Spectrophotometer, BioTek Instruments, Winooski, VT, USA). A wavelength of 570 nm was used for alamarBlue and 490 nm for CellTiter 96 with 600 nm serving as the reference for both. A minimum of three biological replicates for each experiment were completed, and data were reported as fold change ± SEM.

COA6 PDX cells [2] = assay: Proliferation, CellTiter 96 assay; format: cell-based, human; details: increasing doses, 24 h
Description: as §3

SH-EP cells [3] = assay: Proliferation, CellTiter 96 assay; format: cell-based, human; details: increasing doses, 24 h
Description: as §3

SK-N-BE(2) cells [4] = assay: Proliferation, CellTiter 96 assay; format: cell-based, human; details: increasing doses, 24 h
Description: as §3

SK-N-AS cells [5] = assay: Proliferation, CellTiter 96 assay; format: cell-based, human; details: increasing doses, 24 h
Description: as §3

WAC2 cells [6] = assay: Cell viability, alamarBlue assay; format: cell-based, human; details: WAC2, 0, 5, 7.5, 20 μM, 24 h
Description: as §3

COA6 PDX cells [7] = assay: Cell viability, alamarBlue assay; format: cell-based, human; details: COA6 PDX cells, 0, 5, 10, 20 μM, 24 h
Description: as §3

SH-EP cells [8] = assay: Cell viability, alamarBlue assay; format: cell-based, human; details: SH-EP, 0, 5, 7.5, 20 μM, 24 h
Description: as §3

SK-N-BE(2) cells [9] = assay: Cell viability, alamarBlue assay; format: cell-based, human; details: SK-N-BE(2), 0, 5, 7.5, 20 μM, 24 h
Description: as §3

SK-N-AS cells [10] = assay: Cell viability, alamarBlue assay; format: cell-based, human; details: SK-N-AS, 0, 5, 7.5, 20 μM, 24 h
Description: as §3

PP2A = molecular target: T1, PP2A (Homo sapiens, UniProt P30153+P67775+Q15172); assay: PP2A Immunoprecipitation Phosphatase Assay on lysates of treated NB cells; format: cell-based; details: 24 h, control 100%, mean ± SEM
T1 construct: endogenous in cells; host or cells: SK-N-AS, SK-N-BE(2), SH-EP, WAC2 human neuroblastoma cells
T1 sequence (P30153 2-589 limits assumed): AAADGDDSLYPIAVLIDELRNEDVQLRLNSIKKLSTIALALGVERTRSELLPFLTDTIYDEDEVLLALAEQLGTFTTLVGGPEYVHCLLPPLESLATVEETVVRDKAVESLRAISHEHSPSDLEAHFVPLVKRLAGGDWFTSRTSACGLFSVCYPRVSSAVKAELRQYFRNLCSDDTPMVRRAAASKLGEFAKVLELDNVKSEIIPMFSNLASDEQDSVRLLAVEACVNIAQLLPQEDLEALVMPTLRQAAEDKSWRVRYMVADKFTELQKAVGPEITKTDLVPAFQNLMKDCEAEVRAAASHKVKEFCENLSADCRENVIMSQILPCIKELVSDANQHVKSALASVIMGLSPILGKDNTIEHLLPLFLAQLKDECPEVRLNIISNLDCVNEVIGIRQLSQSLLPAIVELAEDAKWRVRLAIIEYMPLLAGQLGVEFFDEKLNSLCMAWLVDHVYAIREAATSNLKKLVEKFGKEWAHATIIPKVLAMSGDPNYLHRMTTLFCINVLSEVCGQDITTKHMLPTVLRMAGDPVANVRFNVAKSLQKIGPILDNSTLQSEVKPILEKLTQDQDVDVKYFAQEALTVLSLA
T1 sequence (P67775 whole entry): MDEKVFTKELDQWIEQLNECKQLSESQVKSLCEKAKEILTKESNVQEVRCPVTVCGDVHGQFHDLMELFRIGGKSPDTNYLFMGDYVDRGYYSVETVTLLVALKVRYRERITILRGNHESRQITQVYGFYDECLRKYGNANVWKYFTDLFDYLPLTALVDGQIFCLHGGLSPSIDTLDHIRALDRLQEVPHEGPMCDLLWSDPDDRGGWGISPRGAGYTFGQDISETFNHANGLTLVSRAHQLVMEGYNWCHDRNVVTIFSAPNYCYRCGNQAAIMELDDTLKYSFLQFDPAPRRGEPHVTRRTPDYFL
T1 sequence (Q15172 whole entry): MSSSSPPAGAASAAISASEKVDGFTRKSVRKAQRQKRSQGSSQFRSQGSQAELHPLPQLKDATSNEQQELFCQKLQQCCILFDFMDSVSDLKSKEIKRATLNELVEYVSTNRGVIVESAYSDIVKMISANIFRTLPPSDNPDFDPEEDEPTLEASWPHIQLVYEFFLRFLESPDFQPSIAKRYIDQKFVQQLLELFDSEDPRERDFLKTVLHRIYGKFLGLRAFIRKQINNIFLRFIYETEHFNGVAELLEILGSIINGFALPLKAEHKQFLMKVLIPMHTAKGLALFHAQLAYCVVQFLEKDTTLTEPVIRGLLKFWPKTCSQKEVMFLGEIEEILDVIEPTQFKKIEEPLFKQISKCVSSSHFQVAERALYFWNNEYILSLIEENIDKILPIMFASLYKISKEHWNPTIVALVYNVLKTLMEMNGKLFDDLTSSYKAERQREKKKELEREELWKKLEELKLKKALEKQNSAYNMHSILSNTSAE
Description: SK-N-AS, SK-N-BE(2), SH-EP, or WAC2 cells (1 × 10^6) were treated with ATUX-3364 or ATUX-8385 (SK-N-AS and SK-N-BE(2) 4 µM; SH-EP and WAC2 12 µM) for 24 h and lysed using HEPES ((4-(2-hydroxyethyl)-1-piperazineethanesulfonic acid, 10 mM) (AC215001000, Thermo Fisher Scientific), MgCl2 (1.5 mM) (MX0045-4, EM Science, Gibbstown, NJ, USA), KCl (10 mM) (02-003-741, Thermo Fisher Scientific), phenylmethylsulfonyl fluoride (0.5 mM) (PMSF, Sigma Aldrich), dithiothreitol (0.5 mM) (EC-601, National Diagnostics, Atlanta, GA, USA), and Igepal CA-630 (0.2%) (I7771, Sigma Aldrich) on ice for 20 min. Cell lysates were centrifuged at 17 000 rpm for 30 min at 4 °C. A PP2A Immunoprecipitation Phosphatase Assay Kit (17–313, EMD Millipore) was utilized per the manufacturer’s protocol to evaluate the activity of PP2A. Experiments were completed with at least three biological replicates, and data were reported as mean fold change ± standard error of the mean (SEM).

CIP2A = assay: Immunoblotting for the endogenous PP2A inhibitor CIP2A; format: cell-based, human; details: immunoblot
Description: as §1

PARP = assay: Immunoblotting for cleaved and total PARP (apoptosis); format: cell-based, human; details: immunoblot
Description: as §1

WAC2 cells [11] = assay: Monolayer wound healing (scratch) assay; format: cell-based, human; details: WAC2, 12 μM; vs untreated cells, p ≤ 0.001
Description: (§4) Migration was investigated using a monolayer wound healing (scratch) assay. Established NB cells (5 × 10^4) were plated in 12-well plates. […] Photographs of the plates were obtained at 0, 12, 24, and 36 h. The ImageJ MRI Wound Healing Tool (https://imagej.net, accessed on 26 November 2021) quantified the open wound area as previously described. In PDX cells, migration was assessed using modified Boyden chamber assays. Micropore inserts with […] (Corning) were utilized in 24-well plates. The insert bottoms were coated with human laminin (10 µg/mL, 150 μL, EMD Millipore). COA6 PDX cells were treated for 24 h with ATUX-3364 or ATUX-8385 (6 μM), plated (4 × 10^4 cells), allowed to migrate through the membrane for 72 h, and the insert membranes were fixed using 4% paraformaldehyde and stained with 1% crystal violet for 15 min. Inserts were photographed, and migration was quantified with ImageJ (https://imagej.net, accessed on 26 November 2021). Scratch assays were reported as the fold change area remaining open at 36 h, and modified Boyden chamber assays were reported as the mean number of migrated cells ± SEM. Experiments were completed with at least three biological replicates.

SH-EP cells [12] = assay: Monolayer wound healing (scratch) assay; format: cell-based, human; details: 12 μM, vs untreated cells, p ≤ 0.001
Description: as §4

SK-N-BE(2) cells [13] = assay: Monolayer wound healing (scratch) assay; format: cell-based, human; details: 4 μM, vs untreated cells, p ≤ 0.001
Description: as §4

SK-N-AS cells [14] = assay: Monolayer wound healing (scratch) assay; format: cell-based, human; details: 4 μM
Description: as §4

[15] = Pharmacokinetic studies of ATUX-8385 in mice (IV and PO), plasma by LC-MS/MS; format: in vivo
Description: Pharmacokinetic (PK) studies of ATUX-8385 were conducted by Eurofins. Briefly, ATUX-8385 was administered at 1 mg/kg intravenously (IV) or 30 mg/kg oral (PO) to male mice, as is the experimental choice of the Contract Research Organization. At euthanasia, samples were collected and stored at −70 °C until processing. The plasma samples were collected at 0.05, 0.167, 0.5, 1, 2, 4, 8, and 24 h(s) after IV treatment, and at 0.167, 0.5, 1, 2, 4, 6, 8, and 24 h(s) after PO treatment. The plasma samples were processed using acetonitrile precipitation and analyzed by liquid chromatography–tandem mass spectrometry (LC-MS/MS).

[16] = In vitro microsome (oxidative) stability / in vitro metabolism; format: in vitro ADME
COA6 PDX cells [17] = assay: Modified Boyden chamber migration assay; format: cell-based, human; details: COA6, 6 μM, treated 24 h, 72 h migration; p ≤ 0.001
Description: as §4

[18] = design: method as in PMID 35454859; details: in vivo; cited from earlier work
[19] = design: method as in PMID 35454859; details: cited from earlier work

SMILES: O=S(=O)(N[C@@H]1CNC[C@H](n2c3ccc(F)cc3c3cc(F)ccc32)[C@H]1O)c1ccc(OC(F)(F)F)cc1 [ATUX-8385]
- phosphorylated MYCN (S62) (MYCN; SK-N-AS cells): decreased
- total MYCN protein expression (MYCN; SK-N-AS cells): decreased
- phosphorylated MYCN (S62) (MYCN; SK-N-BE(2) cells): decreased
- total MYCN protein expression (MYCN; SK-N-BE(2) cells): decreased
- relative tumor growth (SK-N-BE(2) tumors): significant decrease
- tumor volumes (SK-N-BE(2) tumors): significant decrease
- relative tumor growth (SK-N-AS tumors): no decrease
- tumor volumes (SK-N-AS tumors): no decrease
- SET expression (SET; COA6 PDX cells): variably affected
- SET expression (SET; SH-EP cells): did not alter SET expression
- SET expression (SET; SK-N-AS cells): unchanged
- SET expression (SET; SK-N-BE(2) cells): increased
- SET expression (SET; WAC2 cells): decreased
- proliferation (WAC2 cells [1]): significant decrease
- proliferation (COA6 PDX cells [2]): significant decrease
- proliferation (SH-EP cells [3]): significant decrease
- proliferation (SK-N-BE(2) cells [4]): significant decrease
- proliferation (SK-N-AS cells [5]): significant decrease
- viability (WAC2 cells [6]): significantly decreased viability
- viability (COA6 PDX cells [7]): significantly decreased
- viability (SH-EP cells [8]): significantly decreased viability
- viability (SK-N-BE(2) cells [9]): significantly decreased viability
- viability (SK-N-AS cells [10]): significantly decreased viability
- PP2A activation (percent of control) (PP2A; SH-EP cells, 12 μM): 126.6 ± 6.4%
- PP2A activation (percent of control) (PP2A; SK-N-AS cells, 4 μM): 134.1 ± 5.5%
- PP2A activation (percent of control) (PP2A; SK-N-BE(2) cells, 4 μM): 167.2 ± 13.7%
- PP2A activation (percent of control) (PP2A; WAC2 cells, 12 μM): 118.2 ± 9.2%
- CIP2A expression (CIP2A; SH-EP cells): decreased
- CIP2A expression (CIP2A; SK-N-AS cells): decreased
- CIP2A expression (CIP2A; SK-N-BE(2) cells): decreased
- CIP2A expression (CIP2A; WAC2 cells): decreased
- cleaved PARP (PARP; SK-N-AS whole cell lysates): increase
- total PARP (PARP; SK-N-AS whole cell lysates): decrease
- cleaved PARP (PARP; SK-N-BE(2) whole cell lysates): increase
- total PARP (PARP; SK-N-BE(2) whole cell lysates): decrease
- motility (wound healing, area remaining open at 36 h) (WAC2 cells [11]): significant decrease in motility
- motility (wound healing, area remaining open at 36 h) (SH-EP cells [12]): significant decrease in motility
- motility (wound healing, area remaining open at 36 h) (SK-N-BE(2) cells [13]): significant decrease in motility
- motility (wound healing, area remaining open at 36 h) (SK-N-AS cells [14]): affected in a statistically significant manner
- in vivo IV clearance stability relative to DBK-1154 ([15]; 12.3 vs 32.5 mL/min/kg): more stable by a factor of nearly three times
- Plasma levels ([15]; for approximately 8 h after a bolus oral dose at 30 mg/kg): 1000 to 2000 nM
- microsome stability relative to DBK-1154 ([16]; <115.5 vs 234 µL/min/mg): more stable by a factor of two
- Clearance (in vitro microsome (oxidative) stability) ([16]; Test Concentration 1 x 10^-7 M): < 115.5 µL/min/mg
- cell migration (number of migrated cells) (COA6 PDX cells [17]): significantly decreased

SMILES: O=S(=O)(NC1CCCC(N2c3ccccc3CCc3ccccc32)C1O)c1ccc(OC(F)(F)F)cc1 (stereo not shown) [DBK-1154]
- clearance IV [18]: 32.5 mL/min/kg
- in vitro microsome (oxidative) stability (clearance) [19]: 234 µL/min/mg
